molecular target: KRas G12D/Q61H double mutant (Homo sapiens (Human), UniProt P01116, G12D/Q61H); test: Ras GTP binding domain inhibition assay (labeled GTP); settings: 20 μM
Procedure, shortened: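 Fluorescence read-out of Cy3-/Cy5-GTP remaining bound to nickel-immobilized His-KRas after washes. Protein was coated overnight at 4° C, then exposed to compound for 3 h at room temperature before a 45 min labeled-GTP incubation.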

KRas G12D/Q61H double mutant, sequence (P01116-2 other isoform, or with tags, fused parts or gaps G12D/Q61H): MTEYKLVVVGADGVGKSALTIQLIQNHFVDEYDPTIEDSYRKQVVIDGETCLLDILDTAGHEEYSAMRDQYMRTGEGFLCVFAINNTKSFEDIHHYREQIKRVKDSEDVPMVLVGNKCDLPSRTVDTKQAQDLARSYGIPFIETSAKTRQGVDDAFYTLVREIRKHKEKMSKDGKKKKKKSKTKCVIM

O=C(COc1ccc(F)cc1F)Nc1nnc(-c2ccccn2)[nH]1 [drawing 2459] was tested, and the “KRas G12D Q61H % Inh.” value was “C (C = 51-75% inhibition)”.

same assay, conditions: 20 μM compound

COc1cccc(OCCn2c(CN3CCCCC3)nc3ccccc32)c1 [drawing 3033] was tested, and the “% Inhibition at 20 μM KRas G12D Q61H” value was “B (B = 25-50% inhibition)”.

same assay, conditions: 20 μM compound; KRas G12D/Q61H double mutant; read-out: % Inhibition at 20 μM of K-Ras mutant and wild-type protein, KRas G12D Q61H

Compared with COC(=O)c1ccoc1COc1ccc(C(=O)c2ccc(F)cc2)cc1, COc1ccc(N(C(=O)c2ccc(COc3ccccc3)o2)C(C)C2CC2)cc1 (centres unmarked) is lower in inhibition at 20 µM: 51 to 75% for the first, 25 to 50% for the second.

Compared with NC(=O)C1CCCN1Cc1cccc(NC(=O)c2ccccc2OCCOc2ccccc2)c1 (centres unmarked), CCOc1ccc(Oc2ccc(C(F)(F)F)cc2NC(=O)CC(NC(C)=O)c2ccccc2)cc1 (centres unmarked) is lower in inhibition at 20 µM: 25 to 50% for the first, 1 to 25% for the second.

CC(C)(C)NS(=O)(=O)c1ccccc1CNC(=O)CCC1CCCCC1 and COC(=O)C1CCN(S(=O)(=O)NCCOc2ccc(C(C)(C)C)cc2)CC1 fall in the same range of inhibition at 20 µM: 25 to 50% for the first, 25 to 50% for the second.

First: COc1ccc(CN(C)C(=O)c2cc(Br)c(Br)s2)c(OC)c1
Second: CCN1CCN(Cc2ccc(NC(=O)c3cc(OC)c(OC)cc3OC)cc2)CC1
The inhibition at 20 µM of the first is higher: 25 to 50% for the first, 1 to 25% for the second.

Compared with COc1ccc(S(=O)(=O)N2CCCCCC2)cc1C(=O)NCCc1ccccc1C, CN(C)S(=O)(=O)c1ccc(CN2CCCCCC2/C=C/c2ccccc2)o1 (centres unmarked) is higher in inhibition at 20 µM: 1 to 25% for the first, 25 to 50% for the second.

CCOC(=O)c1c(-c2ccc(Br)cc2)csc1/N=C/N(C)C and CCOc1ccc(C2=NN(C(=O)CC)C(c3ccc(CC)cc3)C2)cc1 (centres unmarked) fall in the same range of inhibition at 20 µM: 25 to 50% for the first, 25 to 50% for the second.

COC(=O)C(NCc1ccc(-c2ccc(Cl)cc2)o1)c1ccccc1 (centres unmarked) and COc1ccc(CCN/C(=N/C(=O)Nc2ccccc2)Nc2nc(C)cc(C)n2)cc1OC fall in the same range of inhibition at 20 µM: 25 to 50% for the first, 25 to 50% for the second.

COC(=O)c1c(NC(=O)Cc2cc(OC)c(OC)c(OC)c2)sc2c1CCCCC2 and COc1ccc(CCNc2nc(-c3cc(C)n(-c4ncn[nH]4)c3C)cs2)cc1OC fall in the same range of inhibition at 20 µM: 25 to 50% for the first, 25 to 50% for the second.

COc1ccc(OCCCn2c(C(F)(F)F)c(Br)cnc2=O)cc1 and CC(C)(COc1ncccc1C(F)(F)F)Nc1nccc(C(F)(F)F)n1 fall in the same range of inhibition at 20 µM: 25 to 50% for the first, 25 to 50% for the second.

O=C(c1ccc(CSc2nc3ccccc3[nH]2)cc1)N1N=CCC1(O)C(F)(F)F (centres unmarked) and CCn1c(SCc2csc(-c3ccc(OC)c(OC)c3)n2)nc2ccccc21 fall in the same range of inhibition at 20 µM: 25 to 50% for the first, 25 to 50% for the second.

Compared with O=c1c(Cc2cc(Cl)c3cccnc3c2O)c(O)oc2ccccc12, CC(C)CC(NC(=O)OC(C)(C)C)c1noc(Cc2c[nH]c3ccccc23)n1 (centres unmarked) is lower in inhibition at 20 µM: 25 to 50% for the first, 1 to 25% for the second.

Cc1ccc2c(c1)C1CN(C)CCC1N2Sc1ccc(Cl)cc1 (centres unmarked) and CC(=O)c1c(F)cccc1N1CCN(c2cccc(C(F)(F)F)c2)CC1 fall in the same range of inhibition at 20 µM: 25 to 50% for the first, 25 to 50% for the second.

same assay, conditions: 20 μM compound; read-out: % Inhibition at 20 μM KRas G12D Q61H

Cc1nc(-c2ccccn2)sc1C(=O)NCCNc1cnccn1 and Cc1nc(CC(=O)Nc2nnc(-c3ccccn3)[nH]2)cs1 fall in the same range of inhibition at 20 µM: 25 to 50% for the first, 25 to 50% for the second.

Cc1cccc(OCCNC(=O)c2cc(S(=O)(=O)N3CCOCC3)ccc2N2CCOCC2)c1 and O=C(NCCc1cccs1)c1cc(S(=O)(=O)N2CCCCC2)ccc1N1CCOCC1 fall in the same range of inhibition at 20 µM: 1 to 25% for the first, 1 to 25% for the second.

CC(C)CCS(=O)(=O)CC(=O)Nc1nnc(-c2ccccn2)[nH]1 and C=CCCOC(C)C(=O)Nc1nnc(-c2ccccn2)[nH]1 (centres unmarked) fall in the same range of inhibition at 20 µM: 25 to 50% for the first, 25 to 50% for the second.

Compared with CS(=O)(=O)CCCNC(=O)c1csc2nc(-c3ccccn3)nc(N3CCOCC3)c12 [drawing 2811], c1ccc(-c2csc3nc(-c4ccccn4)nc(NCCN4CCOCC4)c23)cc1 is higher in inhibition at 20 µM: 1 to 25% for the first, 25 to 50% for the second.

COCc1ccc(C(=O)N(Cc2cccs2)Cc2ccccc2OC)cc1 and CCOCc1c(C(=O)N(Cc2cccs2)Cc2ccccc2OC)oc2ccccc12 fall in the same range of inhibition at 20 µM: 1 to 25% for the first, 1 to 25% for the second.

Compared with N#Cc1ccc(N2CCCC2c2ccco2)cc1C(F)(F)F (centres unmarked), COC(=O)c1cccc(CN2CCN(c3cccc(C(F)(F)F)c3)CC2)c1 is higher in inhibition at 20 µM: 1 to 25% for the first, 25 to 50% for the second.

First: COc1ccccc1CC(=O)N(CC(F)(F)F)C1CCCOC1 (centres unmarked)
Second: CC(C1CC1)N(CC(F)(F)F)C(=O)Cc1ccc(Cl)cc1Cl (centres unmarked)
The inhibition at 20 µM of the first is lower: 1 to 25% for the first, 25 to 50% for the second.

CN(Cc1ccc(C(F)(F)F)cc1)Cc1cc([N+](=O)[O-])cc2c1OCOC2 and COC(=O)CCN(Cc1cc(Br)cc(C(F)(F)F)c1)C1CCOCC1 fall in the same range of inhibition at 20 µM: 1 to 25% for the first, 1 to 25% for the second.

O=C(Nc1nc(-c2ccccn2)cs1)c1ccc(=O)[nH]c1 and O=c1[nH]c(-c2ccccn2)nc2ccc(F)cc12 fall in the same range of inhibition at 20 µM: 25 to 50% for the first, 25 to 50% for the second.

O=C(Nc1cccc(C(=O)Nc2nnc(-c3ccccn3)[nH]2)c1)c1cccnc1 and O=C(Nc1nnc(-c2ccccn2)[nH]1)c1ccc(Cn2ccccc2=O)o1 fall in the same range of inhibition at 20 µM: 25 to 50% for the first, 25 to 50% for the second.

CN1CCN(Cc2nnc(-c3ccccc3Cl)o2)c2ccc(F)cc21 and Fc1ccc(OCc2nnc(SCCCc3ccccc3)o2)cc1 fall in the same range of inhibition at 20 µM: 25 to 50% for the first, 25 to 50% for the second.

First: COCCOCCN(C)C(=O)c1csc2c(O)nc(-c3ccccn3)nc12 [drawing 2686]
Second: COC(=O)c1csc2c(O)nc(-c3ccccn3)nc12 [drawing 2823]
The inhibition at 20 µM of the first is higher: 51 to 75% for the first, 1 to 25% for the second.

CCOC(=O)C1CCCC1N(Cc1cccc([N+](=O)[O-])c1)C1CC1 (centres unmarked) and CCOc1ccc(S(=O)(=O)N(CC(=O)N2CCc3ccccc32)Cc2ccco2)cc1 fall in the same range of inhibition at 20 µM: 25 to 50% for the first, 25 to 50% for the second.

O=C(c1csc2c(O)nc(-c3ccccn3)nc12)N1CCC(N2CCOCC2)CC1 [drawing 2678] and COCC1CCN(C(=O)c2csc3c(O)nc(-c4ccccn4)nc23)CC1 [drawing 2675] fall in the same range of inhibition at 20 µM: 25 to 50% for the first, 25 to 50% for the second.

First: CCN(CC(=O)Nc1ccccc1OC)Cc1coc(-c2cccs2)n1
Second: O=C(CCc1nc2ccccc2s1)Nc1nnc(-c2ccccn2)[nH]1
The inhibition at 20 µM of the first is lower: 1 to 25% for the first, 25 to 50% for the second.

First: O=C(c1cnc(-c2ccccc2)s1)N1CCC(c2ccccc2)CC1
Second: O=C(c1csc(-c2ncccn2)n1)N1CCC(c2ccc(O)cc2)CC1
The inhibition at 20 µM of the first is higher: 25 to 50% for the first, 1 to 25% for the second.

First: CC(C)Cc1nc(CN(C)CC(=O)Nc2ccc(Cl)c(S(=O)(=O)N3CCOCC3)c2)no1
Second: CCc1noc(CNc2cc(C(=O)OC)cc(C(F)(F)F)c2)n1
The inhibition at 20 µM of the first is lower: 1 to 25% for the first, 25 to 50% for the second.

COc1ccc(N2CCN(C(=O)c3csc4c(O)nc(-c5ccccn5)nc34)CC2)cc1 and O=C(c1csc2c(O)nc(-c3ccccn3)nc12)N1CCNC(c2cccc(F)c2)C1 (centres unmarked) [drawing 2737] fall in the same range of inhibition at 20 µM: 25 to 50% for the first, 25 to 50% for the second.

First: Cc1ccc(OCc2nnc(SCC3CCCCO3)o2)cc1 (centres unmarked)
Second: COc1c(C)cnc(CN2CCCCC2c2ncc[nH]2)c1C (centres unmarked)
The inhibition at 20 µM of the first is lower: 1 to 25% for the first, 25 to 50% for the second.

COCCN(CCOC)c1nc(-c2ccccn2)nc2c1CCC2 and Cc1nc(-c2ccccn2)nc(NCCS(C)(=O)=O)c1C fall in the same range of inhibition at 20 µM: 25 to 50% for the first, 25 to 50% for the second.

First: CSc1nnc(CN(Cc2ccccc2)Cc2ccccc2)s1
Second: CN(c1ccccc1)c1ccccc1NCc1nnnn1-c1ccccc1
The inhibition at 20 µM of the first is higher: 25 to 50% for the first, 1 to 25% for the second.

Compared with COc1ccc(OCCn2c(CN3CCCCC3)nc3ccccc32)cc1, OC1CCC(Nc2nc(-c3ccccn3)nc3scc(-c4ccccc4)c23)CC1 (centres unmarked) is higher in inhibition at 20 µM: 1 to 25% for the first, 25 to 50% for the second.

CC1=C(c2ccccc2)C2C(=O)NC(c3cnccn3)=NC2S1 (centres unmarked) and CCc1cc2c(=O)[nH]c(-c3ccccn3)nc2s1 fall in the same range of inhibition at 20 µM: 25 to 50% for the first, 25 to 50% for the second.

O=C(c1csc2c(O)nc(-c3ccccn3)nc12)N1CCNC(c2cccc(Cl)c2)C1 (centres unmarked) and COc1cc2c(cc1OC)CCN(C(=O)c1csc3c(O)nc(N)nc13)CC2 [drawing 2672] fall in the same range of inhibition at 20 µM: 25 to 50% for the first, 25 to 50% for the second.

First: O=c1[nH]c(-c2ccnc(Oc3ccccc3Cl)c2)nc2ccsc12
Second: O=C(Nc1nnc(-c2ccccn2)[nH]1)C1CCS(=O)(=O)C1 (centres unmarked)
The inhibition at 20 µM of the first is lower: 1 to 25% for the first, 25 to 50% for the second.

same assay, conditions: 20 μM; read-out: KRas G12D Q61H % Inh.

Cc1ccc(O)c(CN(C)Cc2nccn2Cc2ccccc2)n1 [drawing 2615] and Cc1cccc(C(=O)Nc2nnc(-c3ccccn3)[nH]2)n1 [drawing 2524] fall in the same range of inhibition at 20 µM: 51 to 75% for the first, 51 to 75% for the second.

First: CC(C)C1=C(O)C2(CC2c2ccc(-c3ccccc3)cc2)C(C)CC1 (centres unmarked) [drawing 2635]
Second: O=C(Nc1nnc(-c2ccccn2)[nH]1)C1CC(=O)N(CCc2ccccc2)C1 (centres unmarked) [drawing 2494]
The inhibition at 20 µM of the first is lower: 25 to 50% for the first, 51 to 75% for the second.

O=C(Nc1nc(-c2ccccn2)cs1)c1ccc(F)cc1 [drawing 2579] and O=C(Nc1nc(-c2ccccn2)cs1)c1ccc2[nH]cnc2c1 [drawing 2571] fall in the same range of inhibition at 20 µM: 51 to 75% for the first, 51 to 75% for the second.

First: CC(C)N(Cc1nnc(-c2ccc(Cl)cc2Cl)o1)c1ccc(F)cc1
Second: COc1ccc(CCC(=O)Nc2nnc(-c3ccccn3)[nH]2)cc1F [drawing 2454]
The inhibition at 20 µM of the first is lower: 25 to 50% for the first, 51 to 75% for the second.

Cc1cccc(C)c1OCCOC(=O)c1ccccc1SCCOc1c(C)cccc1C [drawing 2636] and O=c1nc(-c2ccccn2)[nH]c2c1sc1ccccc12 [drawing 2592] fall in the same range of inhibition at 20 µM: 51 to 75% for the first, 51 to 75% for the second.

O=C(Nc1nnc(-c2ccccn2)[nH]1)c1cccc(NC(=O)C2CCCO2)c1 (centres unmarked) [drawing 2498] and O=C(Nc1nnc(-c2ccccn2)[nH]1)c1ccc2c(c1)CCO2 [drawing 2455] fall in the same range of inhibition at 20 µM: 51 to 75% for the first, 51 to 75% for the second.

CC(OCC(F)(F)F)C(=O)Nc1nnc(-c2ccccn2)[nH]1 (centres unmarked) [drawing 2479] and O=C(CC1C=CCC1)Nc1nnc(-c2ccccn2)[nH]1 (centres unmarked) [drawing 2484] fall in the same range of inhibition at 20 µM: 51 to 75% for the first, 51 to 75% for the second.

O=C(Nc1nnc(-c2ccccn2)[nH]1)c1ccc(Oc2cccnc2)cc1 [drawing 2550] and CC(C)(C)c1nc(C(=O)Nc2nnc(-c3ccccn3)[nH]2)cs1 [drawing 2543] fall in the same range of inhibition at 20 µM: 51 to 75% for the first, 51 to 75% for the second.

With COCCCn1ccc(Nc2cc(C)nc(-c3ccccn3)n2)n1 [drawing 2606] the inhibition at 20 µM was 51 to 75%.

same assay, conditions: at 20 μM; read-out: KRas G12D Q61H % Inh.

Cc1cc2nc(-c3ccccn3)nc(O)c2s1 [drawing 3791] gave an inhibition at 20 µM of 51 to 75%.

same assay, conditions: read-out: KRas G12D Q61H IC50

Compound O=c1nc(-c2ccccn2)[nH]c2c1sc1ccccc12 [drawing 2592] has an IC50 of 11 to 30 µM.
